Data as given in patent US10065990B2, “Cyclic peptide compound, and preparation method, pharmaceutical composition and use thereof” (HANGZHOU GUANYU BIO-MEDICAL CO., LTD, priority 2013, dated 2018).
Read-outs that look alike come from different tables or passages of the source.

Experiments:
[1] = molecular target: HDAC1 (Homo sapiens, UniProt Q13547); test: HDAC biochemical activity measurement (fluorescent substrate deacetylation);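 further: fluorogenic acetyl-lysine substrate (20 µM) deacetylated by HDAC1, then developer releases fluorophore read at 360 nm excitation and 460 nm emission, inhibitor incubated 30 min at 37 °C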
Chain of HDAC1 (Q13547 whole entry, species assumed): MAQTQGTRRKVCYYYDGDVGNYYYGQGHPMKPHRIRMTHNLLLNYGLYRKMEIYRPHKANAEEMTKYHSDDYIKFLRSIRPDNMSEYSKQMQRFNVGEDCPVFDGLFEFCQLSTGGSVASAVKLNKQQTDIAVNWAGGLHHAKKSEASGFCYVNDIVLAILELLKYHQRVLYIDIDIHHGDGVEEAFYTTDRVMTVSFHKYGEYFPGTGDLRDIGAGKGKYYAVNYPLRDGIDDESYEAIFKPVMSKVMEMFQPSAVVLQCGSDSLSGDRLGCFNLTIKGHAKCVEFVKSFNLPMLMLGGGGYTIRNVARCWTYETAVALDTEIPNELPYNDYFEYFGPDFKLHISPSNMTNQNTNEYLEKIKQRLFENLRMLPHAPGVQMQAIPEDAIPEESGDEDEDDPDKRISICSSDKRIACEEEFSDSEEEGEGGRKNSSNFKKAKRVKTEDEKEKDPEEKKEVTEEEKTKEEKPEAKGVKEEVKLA

[2] = molecular target: HDAC2 (Homo sapiens, UniProt Q92769); test: as above; conditions: 37° C. 30 minutes;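 further: HDAC2 enzyme with an acetyl-lysine fluorescent substrate, then developer added, fluorescence read at excitation 360 nm and emission 460 nm, inhibition measured across several compound concentrations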
Chain of HDAC2 (Q92769 whole entry, species assumed): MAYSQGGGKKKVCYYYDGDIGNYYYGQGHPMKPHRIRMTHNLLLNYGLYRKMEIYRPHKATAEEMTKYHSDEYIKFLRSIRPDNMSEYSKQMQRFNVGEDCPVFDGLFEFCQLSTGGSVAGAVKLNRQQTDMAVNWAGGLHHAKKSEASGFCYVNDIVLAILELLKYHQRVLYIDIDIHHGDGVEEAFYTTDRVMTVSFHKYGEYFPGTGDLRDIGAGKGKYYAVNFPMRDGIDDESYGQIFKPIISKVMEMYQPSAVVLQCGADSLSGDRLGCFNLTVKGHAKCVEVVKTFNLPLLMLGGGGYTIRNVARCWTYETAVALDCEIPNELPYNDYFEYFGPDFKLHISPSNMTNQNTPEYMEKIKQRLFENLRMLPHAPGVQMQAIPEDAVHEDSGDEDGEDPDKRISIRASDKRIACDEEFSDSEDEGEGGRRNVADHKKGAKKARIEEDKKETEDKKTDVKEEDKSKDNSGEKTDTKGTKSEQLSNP

[3] = molecular target: T1, HDAC8 (Homo sapiens, UniProt Q9BY41); test: as above; conditions: 37° C. 30 minutes
T1 sequence (Q9BY41 1-377): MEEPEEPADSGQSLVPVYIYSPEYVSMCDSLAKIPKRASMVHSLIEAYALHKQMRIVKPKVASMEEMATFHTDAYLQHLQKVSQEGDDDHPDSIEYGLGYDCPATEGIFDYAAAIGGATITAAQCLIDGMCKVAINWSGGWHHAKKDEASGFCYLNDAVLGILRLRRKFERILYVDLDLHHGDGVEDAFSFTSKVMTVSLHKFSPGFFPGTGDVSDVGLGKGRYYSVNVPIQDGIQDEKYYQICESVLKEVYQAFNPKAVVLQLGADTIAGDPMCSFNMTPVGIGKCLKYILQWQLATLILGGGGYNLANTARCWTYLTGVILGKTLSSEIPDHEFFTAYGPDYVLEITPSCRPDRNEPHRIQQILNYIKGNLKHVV

[4] = molecular target: T2, HDAC7 (Homo sapiens, UniProt Q8WUI4); test: as above; conditions: HDAC7; 37° C. 30 minutes;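 further: fluorogenic deacetylation assay using acetyl-lysine substrate at 20 µM, enzyme and compound incubated 30 min at 37 °C, then developer added, fluorescence read at 360/460 nm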
T2 sequence (Q8WUI4 1-952): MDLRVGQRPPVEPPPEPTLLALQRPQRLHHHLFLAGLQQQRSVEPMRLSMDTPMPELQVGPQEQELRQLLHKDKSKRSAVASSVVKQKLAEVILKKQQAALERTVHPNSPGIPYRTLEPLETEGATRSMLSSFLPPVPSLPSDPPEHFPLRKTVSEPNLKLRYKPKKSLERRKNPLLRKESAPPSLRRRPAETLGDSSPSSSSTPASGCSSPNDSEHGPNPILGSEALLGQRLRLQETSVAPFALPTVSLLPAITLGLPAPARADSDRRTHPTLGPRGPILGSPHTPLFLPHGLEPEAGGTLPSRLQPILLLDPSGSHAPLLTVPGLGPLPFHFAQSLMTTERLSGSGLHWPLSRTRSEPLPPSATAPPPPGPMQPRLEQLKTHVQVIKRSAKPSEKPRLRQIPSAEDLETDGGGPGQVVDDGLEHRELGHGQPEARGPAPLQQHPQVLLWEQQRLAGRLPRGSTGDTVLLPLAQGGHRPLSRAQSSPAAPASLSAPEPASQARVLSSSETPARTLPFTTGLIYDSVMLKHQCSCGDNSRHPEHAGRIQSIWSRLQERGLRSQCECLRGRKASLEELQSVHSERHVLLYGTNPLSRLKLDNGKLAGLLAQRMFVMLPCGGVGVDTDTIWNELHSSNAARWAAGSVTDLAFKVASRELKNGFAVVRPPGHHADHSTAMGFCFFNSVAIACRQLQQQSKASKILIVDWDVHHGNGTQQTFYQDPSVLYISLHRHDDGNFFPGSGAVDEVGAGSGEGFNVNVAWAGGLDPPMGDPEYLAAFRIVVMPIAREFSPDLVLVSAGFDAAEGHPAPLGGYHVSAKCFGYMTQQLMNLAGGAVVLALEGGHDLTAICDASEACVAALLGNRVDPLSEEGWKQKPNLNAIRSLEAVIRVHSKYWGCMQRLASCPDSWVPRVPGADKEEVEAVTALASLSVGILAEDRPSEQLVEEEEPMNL

[5] = system: A549 (human lung cancer cells); test: MTT cancer cell growth inhibition; format: cell-based; conditions: Homo sapiens, A549, 72 h, MTT
Summary of the method: (§1)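 Seed 1500 cells/well, incubate overnight. Add compound, 10^−5 to 10^−10 M final, n=3; culture 72 h, 37° C., 5% CO2. Add MTT, 4 h. Discard supernatant, dissolve in DMSO. Read 570 nm; calculate viability and GI50.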

[6] = system: H1975 (non-small cell lung adenocarcinoma); test: MTT cancer cell growth inhibition; format: cell-based; conditions: MTT, 72 hours incubation, H1975 cells, read-out: GI50 H1975
Summary of the method: as §1

[7] = system: KBM5-T315I (human chronic myelogenous leukemia); test: MTT cancer cell growth inhibition; format: cell-based; conditions: MTT, 72 hours incubation, KBM5-T315I cells, read-out: GI50 KBM5-T315I
Summary of the method: as §1

[8] = system: MCF-7 (human breast cancer cells); test: MTT cancer cell growth inhibition; format: cell-based; conditions: Homo sapiens, MCF7, 72 h
Summary of the method: as §1

[9] = system: MOLT-4 (human acute lymphoblastic leukemia cells); test: MTT cancer cell growth inhibition; format: cell-based; conditions: Homo sapiens, MOLT-4, 72 h, MTT
Summary of the method: as §1

[10] = molecular target: HDAC3 (Homo sapiens, UniProt O15379); test: HDAC biochemical activity measurement (fluorescent substrate deacetylation);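 further: fluorogenic acetyl-lysine substrate (20 µM) deacetylated by HDAC3, then developer added for 15 min at room temperature, release of fluorophore read at excitation 360 nm, emission 460 nm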
Chain of HDAC3 (O15379 whole entry, species assumed): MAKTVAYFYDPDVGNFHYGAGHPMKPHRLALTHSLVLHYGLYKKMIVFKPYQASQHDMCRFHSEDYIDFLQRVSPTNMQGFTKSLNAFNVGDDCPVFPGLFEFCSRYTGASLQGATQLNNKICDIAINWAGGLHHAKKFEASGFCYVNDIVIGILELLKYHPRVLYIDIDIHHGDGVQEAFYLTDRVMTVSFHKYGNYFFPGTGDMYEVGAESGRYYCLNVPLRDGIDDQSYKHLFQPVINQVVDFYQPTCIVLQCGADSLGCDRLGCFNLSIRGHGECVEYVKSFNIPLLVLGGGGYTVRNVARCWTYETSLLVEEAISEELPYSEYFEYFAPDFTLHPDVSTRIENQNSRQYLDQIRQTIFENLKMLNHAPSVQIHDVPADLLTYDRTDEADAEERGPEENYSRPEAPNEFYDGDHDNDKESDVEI
Chain of HDAC3 (Q9Y618 395-489 partner limits assumed, species assumed): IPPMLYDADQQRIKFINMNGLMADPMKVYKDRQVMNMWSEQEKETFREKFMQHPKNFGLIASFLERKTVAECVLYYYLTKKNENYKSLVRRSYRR
Method: The chemical activity of the compound is determined according to the degree of deacetylation inhibition of the HDAC enzyme. This experiment measured the degree of deacetylation related to tumor proliferation and metastasis of HDAC1, HDAC2, HDAC3, HDAC8, HDAC11 five subtypes HDAC enzymes. After the substrate containing an acetylated lysine side chain and HDAC enzyme are labeled with a fluorescent label, the fluorescent substrate is de acetyl. The fluorescent labeled substrate is cleaved by the enzyme, and the fluorescent substance is released, which generates 460 nm emission light under the excitation of 360 nm light.
HDAC substrate was diluted with reaction buffer to 200M (reaction concentration of 20M), the HDAC enzyme was diluted to the appropriate concentration, then added different concentrations of the test compounds and acted at 37° C. 30 minutes, and then added the same volume of 2-times concentration substrate developing solution (developer), incubated at room temperature for 15 minutes.

[11] = molecular target: T3, HDAC11 (Homo sapiens, UniProt Q96DB2); test: as above;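 further: HDAC11 enzyme acting on an acetyl-lysine fluorogenic substrate, then a developer frees the fluorophore, read at excitation 360 nm and emission 460 nm, IC50 over a compound dilution series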
T3 sequence (Q96DB2 1-347): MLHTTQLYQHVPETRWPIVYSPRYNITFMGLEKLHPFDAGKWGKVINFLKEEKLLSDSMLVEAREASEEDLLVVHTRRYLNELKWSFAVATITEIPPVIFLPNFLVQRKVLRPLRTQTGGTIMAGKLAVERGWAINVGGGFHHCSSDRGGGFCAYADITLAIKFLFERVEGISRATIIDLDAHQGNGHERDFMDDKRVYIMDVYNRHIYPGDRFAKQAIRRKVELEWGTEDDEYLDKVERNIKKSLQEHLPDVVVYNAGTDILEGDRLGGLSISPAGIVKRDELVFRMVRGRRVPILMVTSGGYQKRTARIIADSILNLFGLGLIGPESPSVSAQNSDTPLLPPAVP

[12] = HDAC1, 37° C. 30 minutes, read-out: IC50 HDAC1
[13] = Table 3, column C, read-out: IC50 HDAC1, C (six-membered ring with substituents)
[14] = 72 hours incubation, read-out: GI50 A54
[15] = 72 hours incubation, read-out: GI50 MCF
[16] = 72 hours incubation, read-out: GI50 Mol
[17] = read-out: IC50 HDAC3, HDAC3, 37° C. 30 minutes
[18] = read-out: IC50 HDAC11, HDAC11, 37° C. 30 minutes
[19] = Table 2, read-out: IC50 HDAC1, a (compounds of the present invention)
[20] = Table 3, read-out: IC50 HDAC1, D (non-substituent)
[21] = 72 hours, present invention, read-out: GI50 A549, a
[22] = 72 hours, present invention, read-out: GI50 MCF7, a
[23] = 72 hours, present invention, read-out: GI50 Molt-4, a
[24] = A549 cells, 72 hours incubation, read-out: GI50 A54
[25] = MCF-7 cells, 72 hours incubation, read-out: GI50 MCF
[26] = MOLT-4 cells, 72 hours incubation, read-out: GI50 Mol

Row | Structure (SMILES) | IC50 [1, 12] [nM] | IC50 [2] [nM] | IC50 [3] [nM] | IC50 HDAC7 [4] | GI50 [5, 14] [nM] | GI50 ([6]; Homo sapiens, NCI-H1975, 72 h) [nM] | GI50 ([7]; Homo sapiens, 72 h) [nM] | GI50 [8, 15] [nM] | GI50 [9, 16] [nM] | IC50 [10, 17] [nM] | IC50 [11, 18] [nM] | IC50 [10] [nM] | IC50 [11] [nM] | IC50 [1, 20] [nM] | other results
1 | C/C=C1\NC(=O)c2cc(F)cc(n2)CNC(=O)C[C@@H](/C=C/CCSC(=O)CCCCCCC)OC(=O)[C@H](CC)NC1=O [Compound 55] | 13 | 34 | 43 | no activity | 50 | 52 | 73 | 70 | 20 | 35 | 83 | – | – | – | IC50 [1, 13]: 13 nM
2 | C/C=C1\NC(=O)c2nccc(n2)CNC(=O)C[C@@H](/C=C/CCSC(C)=O)OC(=O)[C@H](C)NC1=O [Example 24] | 74 | 83 | 63 | no activity | 100 | 37 | 35 | 50 | 490 | – | – | 43 | 97 | – | –
3 | C/C=C1\NC(=O)c2cccc(n2)CNC(=O)C[C@@H](/C=C/CCSC(=O)CCCCCCC)OC(=O)[C@H](CC)NC1=O [Compound 9] | 45 | 64 | 49 | no activity | 80 | 26 | 26 | 30 | 10 | 34 | 101 | – | – | 45 | IC50 [1, 19]: < 50 nM; GI50 [5, 21]: 80 nM; GI50 [8, 22]: 30 nM; GI50 [9, 23]: 11 nM
4 | C/C=C1\NC(=O)c2ccc(F)c(n2)CNC(=O)C[C@@H](/C=C/CCSC(C)=O)OC(=O)[C@H](CCCCN)NC1=O [Example 74] | 273 | 129 | 435 | no activity | 40 | 29 | 350 | 350 | 20 | – | – | 231 | 672 | – | –
5 | CC(=O)SCC/C=C/[C@@H]1CC(=O)NCc2cccc(n2)C(=O)NC(=C(C)C)C(=O)N[C@@H](C(C)C)C(=O)O1 [Compound 20] | 183 | 77 | 65 | no activity | 320 | 35 | 33 | 1900 | 130 | 45 | 87 | – | – | 183 | –
6 | C/C=C1\NC(=O)c2cccc(n2)CNC(=O)C[C@@H](/C=C/CCSC(C)=O)OC(=O)[C@H](Cc2ccc(O)cc2)NC1=O [Compound 18] | 187 | 55 | 73 | no activity | 3800 | 53 | 37 | 490 | 59700 | 67 | 107 | – | – | 187 | –
7 | C/C=C1\NC(=O)c2cc(F)cc(n2)CNC(=O)C[C@@H](/C=C/CCSC(=O)CCCCCCC)OC(=O)[C@H](C)NC1=O [Compound 61] | 13 | 38 | 38 | no activity | 30 | 53 | 94 | 90 | 30 | 38 | 83 | – | – | – | IC50 [1, 13]: 13 nM
8 | C/C=C1\NC(=O)c2cccc(n2)CNC(=O)C[C@@H](/C=C/CCSC(C)=O)OC(=O)[C@H](CCCCN)NC1=O [Compound 15] | 191 | 47 | 43 | no activity | 2300 | 38 | 16 | 19800 | 19700 | 57 | 106 | – | – | 191 | –
9 | CCCCCCCC(=O)SCC/C=C/[C@@H]1CC(=O)NCc2cccc(n2)C(=O)NCC(=O)N[C@@H](C(C)C)C(=O)O1 [Compound 246] | 90 | 69 | 132 | no activity | – | 63 | 33 | – | – | 87 | 235 | – | – | – | IC50 [1, 19]: < 100 nM; GI50 [5, 24]: 110 nM; GI50 [5, 21]: 110 nM; GI50 [8, 22]: 310 nM; GI50 [8, 25]: 310 nM; GI50 [9, 26]: 910 nM; GI50 [9, 23]: 910 nM
10 | C/C=C1\NC(=O)c2nc(ccc2F)CNC(=O)C[C@@H](/C=C/CCSC(C)=O)OC(=O)[C@H](C(C)C)NC1=O [Example 48] | 81 | 15 | 14 | no activity | 60 | – | – | 60 | 30 | – | – | 47 | 93 | – | GI50 [6]: 28 nM; GI50 [7]: 61 nM
11 | C/C=C1\NC(=O)c2cc(SC)cc(n2)CNC(=O)C[C@@H](/C=C/CCSC(=O)CCCCCC)OC(=O)[C@H](C(C)C)NC1=O [Compound 151] | 61 | 24 | 38 | no activity | – | 58 | 22 | – | – | – | – | 23 | 95 | – | GI50 [5, 24]: 40 nM; GI50 [8, 25]: 40 nM; GI50 [9, 26]: 90 nM
